# From publication PMC4313372, “MHJ_0461 is a multifunctional leucine aminopeptidase on the surface of Mycoplasma hyopneumoniae” (Open Biology, 2015)
# Experiments:
# [1] = biological target: T1, rMHJ_0461 (Mesomycoplasma hyopneumoniae, UniProt Q4A9M4); test: fluorogenic aminopeptidase assay, leucine-AMC, […] min preincubation; format: biochemical; parameters: gene pepA; multimers of about 500 and 800 kDa; settings: read-out: % inhibition at 1 mM
# [2] = biological target: T1, rMHJ_0461; parameters: gene pepA; settings: 50 uM substrate, 5 mM Mn2+, pH 7.2, 37 C
# [3] = biological target: recombinant MHJ_0461 (Mycoplasma hyopneumoniae strain J); test: native gel or EMSA; Blue Native PAGE of purified rMHJ_0461; complexes identified by LC-MS/MS of tryptic peptides
Molecule,inhibition at 1000 µM [1] [%],also measured
CC(C)C[C@@H](N)[C@H](O)C(=O)N[C@H](C(=O)N[C@H](C(=O)N[C@@H](CC(=O)O)C(=O)O)C(C)C)C(C)C [amastatin],69,–
CC(C)C[C@H](NC(=O)[C@@H](O)[C@H](N)Cc1ccccc1)C(=O)O [bestatin],99,–
CSCC[C@H](N)C(=O)Nc1ccc2c(C)cc(=O)oc2c1 [methionine-AMC],–,fluorogenic AMC release assay [2]: leucine > methionine > phenylalanine > arginine > alanine > isoleucine > glycine > valine
recombinant MHJ_0461 (enzyme),–,stoichiometry N [3]: > 10 subunits
